The results in this text go back to ChEMBL document CHEMBL1124351, “Syntheses and bioevaluation of substituted dihydropyridines for pregnancy-interceptive activity in hamsters” (1989).

SMILES strings stand for the structures.

The target in test [1] is T1, Progesterone receptor (Oryctolagus cuniculus) (UniProt P06186).
T1 sequence (whole entry): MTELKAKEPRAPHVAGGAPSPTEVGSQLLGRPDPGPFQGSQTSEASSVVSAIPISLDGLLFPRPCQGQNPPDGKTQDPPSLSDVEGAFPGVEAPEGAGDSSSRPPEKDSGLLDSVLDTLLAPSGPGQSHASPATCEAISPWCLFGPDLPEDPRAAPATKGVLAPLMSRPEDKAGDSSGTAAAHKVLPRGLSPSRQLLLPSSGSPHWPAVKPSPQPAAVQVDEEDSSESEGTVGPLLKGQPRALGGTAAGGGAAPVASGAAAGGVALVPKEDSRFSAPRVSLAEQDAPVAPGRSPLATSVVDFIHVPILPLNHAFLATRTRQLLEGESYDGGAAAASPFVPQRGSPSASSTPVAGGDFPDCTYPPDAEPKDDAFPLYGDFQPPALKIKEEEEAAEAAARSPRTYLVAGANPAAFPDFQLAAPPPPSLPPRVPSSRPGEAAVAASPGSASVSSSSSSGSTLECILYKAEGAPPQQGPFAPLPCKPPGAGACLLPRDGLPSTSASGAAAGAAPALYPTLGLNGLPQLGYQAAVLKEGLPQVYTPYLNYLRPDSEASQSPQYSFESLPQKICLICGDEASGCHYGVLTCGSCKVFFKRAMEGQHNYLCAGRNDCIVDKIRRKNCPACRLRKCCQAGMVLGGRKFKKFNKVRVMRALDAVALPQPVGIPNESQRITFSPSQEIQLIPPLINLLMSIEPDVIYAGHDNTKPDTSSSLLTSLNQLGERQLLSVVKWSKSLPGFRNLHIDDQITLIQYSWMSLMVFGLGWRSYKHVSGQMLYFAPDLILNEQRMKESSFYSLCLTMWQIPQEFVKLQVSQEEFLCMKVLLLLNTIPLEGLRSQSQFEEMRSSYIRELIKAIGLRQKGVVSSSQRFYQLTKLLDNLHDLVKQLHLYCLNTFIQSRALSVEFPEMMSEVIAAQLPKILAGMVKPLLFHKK
The test can be described thus: Percent inhibition of [3H]- progesterone binding to rabbit uterine progesterone receptor, at 10e-8 M compound concentration. To be noted: at 0.01 µM.

Test [2] has as its system Progesterone receptor (Mesocricetus auratus). Nature of the test: Percent inhibition of [3H]- progesterone binding to Syrian golden hamster uterine cytosol progesterone receptor, at 10e-7 M compound concentration. To be noted: at 0.1 µM.
In test [3] the test system is Cricetinae gen. sp. The test can be described thus: Activity against pregnancy-interceptive activity in Syrian golden hamsters, when administered, at a dose of 6.36 mmol/kg. The class given is functional, Cricetulus griseus.
In test [4] the target is T1, Progesterone receptor (Oryctolagus cuniculus). The test can be described thus: Percent inhibition of [3H]- progesterone binding to rabbit uterine progesterone receptor, at 10e-9 M compound concentration. As to conditions: at 0.001 µM.
The target is the same in test [5]. Nature of the test: Percent inhibition of [3H]- progesterone binding to rabbit uterine progesterone receptor, at 10e-7 M compound concentration. As to conditions: at 0.1 µM.
Test [6] shares this target. The test can be described thus: Percent inhibition of [3H]- progesterone binding to rabbit uterine progesterone receptor, at 10e-6 M compound concentration. As to conditions: at 1 µM.
For test [7] the target is unchanged. The test can be described thus: Percent inhibition of [3H]- progesterone binding to rabbit uterine progesterone receptor, at 10e-5 M compound concentration. To be noted: at 10 µM.
For test [8], the system named is Progesterone receptor (Mesocricetus auratus). The test can be described thus: Percent inhibition of [3H]- progesterone binding to Syrian golden hamster uterine cytosol progesterone receptor, at 10e-8 M compound concentration. To be noted: at 0.01 µM.
The test system is the same in test [9]. The test can be described thus: Percent inhibition of [3H]- progesterone binding to Syrian golden hamster uterine cytosol progesterone receptor, at 10e-9 M compound concentration. As to conditions: at 0.001 µM.
Test [10] has the same test system. The test can be described thus: Percent inhibition of [3H]- progesterone binding to Syrian golden hamster uterine cytosol progesterone receptor, at 10e-6 M compound concentration. To be noted: at 1 µM.
Test [11] has the same test system. Nature of the test: Percent inhibition of [3H]- progesterone binding to Syrian golden hamster uterine cytosol progesterone receptor, at 10e-5 M compound concentration. As to conditions: at 10 µM.
Test [12] relates to Cricetinae gen. sp. Nature of the test: Activity against pregnancy-interceptive activity in Syrian golden hamsters, when administered, at a dose of 5.54 mmol/kg. It is filed as functional.
Test [13] concerns Cricetinae gen. sp. Nature of the test: Activity against pregnancy-interceptive activity in Syrian golden hamsters, when administered, at a dose of 8.35 mmol/kg. The class given is functional, Cricetulus griseus.
For test [14], the system named is Cricetinae gen. sp. Nature of the test: Activity against pregnancy-interceptive activity in Syrian golden hamsters, when administered, at a dose of 15.20 mmol/kg. It is filed as functional.
Test [15] deals with Cricetinae gen. sp. The test can be described thus: Activity against pregnancy-interceptive activity in Syrian golden hamsters, when administered, at a dose of 12.08 mmol/kg. The class given is functional.
Test [16] has as its system Cricetinae gen. sp. The test can be described thus: Activity against pregnancy-interceptive activity in Syrian golden hamsters, when administered, at a dose of 4.95 mmol/kg. It is filed as functional.
The test system of test [17] is Cricetinae gen. sp. The test can be described thus: Activity against pregnancy-interceptive activity in Syrian golden hamsters, when administered, at a dose of 14.62 mmol/kg. It is filed as functional.
The test system of test [18] is Cricetinae gen. sp. Nature of the test: Activity against pregnancy-interceptive activity in Syrian golden hamsters, when administered, at a dose of 6.66 mmol/kg. It is filed as functional.
In test [19] the test system is Cricetinae gen. sp. The test can be described thus: Activity against pregnancy-interceptive activity in Syrian golden hamsters, when administered, at a dose of 5.64 mmol/kg. The class given is functional.
For test [20], the system named is Cricetinae gen. sp. Nature of the test: Activity against pregnancy-interceptive activity in Syrian golden hamsters, when administered, at a dose of 6.70 mmol/kg. It is filed as functional.
The test system of test [21] is Cricetinae gen. sp. Nature of the test: Activity against pregnancy-interceptive activity in Syrian golden hamsters, when administered, at a dose of 8.82 mmol/kg. The class given is functional.
The subject of test [22] is Cricetinae gen. sp. The test can be described thus: Activity against pregnancy-interceptive activity in Syrian golden hamsters, when administered, at a dose of 13.15 mmol/kg. It is filed as functional.
In test [23] the test system is Cricetinae gen. sp. The test can be described thus: Activity against pregnancy-interceptive activity in Syrian golden hamsters, when administered, at a dose of 6.98 mmol/kg. It is filed as functional.

For orientation: inhibition means how much of the control response was suppressed. A lower inhibition goes with a response near the control.

Take `COC(=O)C1=C(C)N=C(C)/C(=C(/O)OC)C1c1cc2ccccc2n2nnnc12` (stereo not given): the inhibition worked out at 10% in test [1]; 10% in [2]; 0% in [4]; 12% in test [5]; 8% in test [6]; 14% in test [7]. Besides, the inhibition in test [8] amounted to 8%; in test [9] it was 0%; in test [10], 9%; in [11], 10%. The compound further returned an Activity in test [3] of 2.5.

For `COC(=O)C1=C(C)N=C(C)/C(=C(/O)OC)C1c1ccc(NCc2ccccc2)c([N+](=O)[O-])c1` (stereo not given), the inhibition in [1] is 10%; in [2], 4%; in test [4] it was 0%; in test [5], 0%; in [6] it was 10%; in [7] it was 12%. Moreover, the inhibition amounted to 0% in test [8], 0% in [9], 6% in test [10] and 10% in test [11]. Moreover, in test [12], the Activity is reported as 2.5.

As to `COC(=O)C1=C(C)N=C(C)/C(=C(/O)OC)C1c1ccc2nc(-c3ccc(O)c(OC)c3)n(Cc3ccc(O)c(OC)c3)c2c1` (stereo not given), the inhibition was found to be 8% in test [1]; 12% in test [2]; 5% in test [4]; 15% in test [5]; 15% in test [6]; 20% in [7]. In addition, the inhibition was found to be 5% in [8], 3% in test [9], 18% in test [10] and 18% in [11]. Further, the Activity in [13] is reported as 1.2.

For `COC(=O)C1=C(C)N=C(C)/C(=C(/O)OC)C1c1ccc(C=O)cc1` (stereo not given), the inhibition amounted to 4% in test [1]; 5% in test [2]; 3% in test [4]; 8% in test [5]; 10% in test [6]; 15% in test [7]. Moreover, the inhibition in test [8] turned out to be 9%; in [9], 0%; in [10], 10%; in test [11], 12%. Also, the Activity in test [14] was 5.15.

As for `COC(=O)Nc1nc2cc(C3C(C(=O)OC)=C(C)N=C(C)/C3=C(/O)OC)ccc2[nH]1` (stereo not given), the inhibition in test [1] was 5%; in test [2], 16%; in test [4], 5%; in test [5] it was 16%; in test [6], 16%; in [7] it was 20%. In addition, the inhibition in test [8] stood at 10%; in test [9], 0%; in [10], 15%; in test [11], 28%. For the same compound, the Activity in [15] is reported as 1.5.

As to `COC(=O)C1=C(C)N=C(C)/C(=C(/O)OC)C1c1ccc2nc(-c3ccccc3)c(-c3ccccc3)nc2c1` (stereo not given), the inhibition in [1] stood at 2%; in test [2], 12%; in test [4], 2%; in test [5], 10%; in test [6], 18%; in test [7] it was 16%. The inhibition in test [8] stood at 9%; in test [9] it was 6%; in test [10], 15%; in [11] it was 18%. In test [16], this compound came in with an Activity of 4.6.

Turning to `COC(=O)C1=C(C)N=C(C)/C(=C(/O)OC)C1c1ccc2[nH]nnc2c1` (stereo not given), the inhibition in [1] was 8%; in test [2] it was 16%; in test [4], 10%; in test [5] it was 12%; in [6], 20%; in test [7], 22%. Further, the inhibition in test [8] stood at 12%; in test [9], 9%; in test [10] it was 18%; in [11], 26%. This compound gave an Activity in [17] of 5.2.

Consider `CNc1ccc(C2C(C(=O)OC)=C(C)N=C(C)/C2=C(/O)OC)cc1[N+](=O)[O-]` (stereo not given), for which the inhibition in test [1] worked out at 8%; in test [2], 10%; in test [4], 5%; in test [5], 10%; in test [6] it was 10%; in [7] it was 14%. In addition, the inhibition in test [8] was 4%; in [9], 4%; in [10], 13%; in test [11], 12%. In test [18], the Activity is given as 6.8.

With `COC(=O)C1=C(C)N=C(C)/C(=C(/O)OC)C1c1ccc2nc3n(c2c1)C(=O)c1ccccc1-3` (stereo not given), the inhibition in test [1] was found to be 0%; in test [2], 8%; in test [4], 0%; in test [5] it was 0%; in test [6] it was 15%; in test [7], 15%. The inhibition in test [8] turned out to be 9%; in test [9] it was 6%; in test [10], 10%; in [11] it was 16%. This compound also gave an Activity in test [19] of 3.8.

Consider `COC(=O)C1=C(C)N=C(C)/C(=C(/O)OC)C1c1ccc2[nH]c(S)nc2c1` (stereo not given), for which the inhibition in [1] amounted to 10%; in test [2], 18%; in [4] it was 0%; in test [5], 15%; in [6], 18%; in [7] it was 20%. Further, the inhibition in test [8] was 10%; in test [9] it was 9%; in [10], 26%; in test [11] it was 30%. The compound further came in with an Activity in test [20] of 5.

With `COC(=O)C1=C(C)N=C(C)/C(=C(/O)OC)C1c1ccc2nc(-c3ccc(OC)cc3)n(Cc3ccc(OC)cc3)c2c1` (stereo not given), the inhibition in test [1] is 6%; in test [2] it was 15%; in test [4], 2%; in [5], 10%; in test [6], 16%; in [7] it was 20%. The inhibition amounted to 12% in test [8], 10% in test [9], 20% in test [10] and 24% in test [11]. For the same compound, in [21], the Activity is on record as 6.

`COC(=O)C1=C(C)N=C(C)/C(=C(/O)OC)C1c1ccc(Cl)c([N+](=O)[O-])c1` (stereo not given): the inhibition in test [1] is 0%; in test [2], 10%; in [4] it was 0%; in test [5], 5%; in test [6] it was 10%; in test [7], 18%. The inhibition in [8] came to 5%; in test [9], 2%; in [10], 14%; in test [11], 24%. Also, the Activity in [22] is given as 2.6.

As for `COC(=O)C1=C(C)N=C(C)/C(=C(\O)OC)C1c1ccc(NC(C)=O)cc1` (stereo not given), in test [23], the Activity turned out to be 0.66. The inhibition is 18% in [6] and 15% in test [7].
